Test results taken from PMC8201324, “Pyrazoles and Pyrazolines as Anti-Inflammatory Agents” (Molecules, 2021).
Marks after values point to notes of the source that are not given here.

Experiments:
[1] = Experimental determination of lipophilicity as RM values (RP-TLC); format: physicochemical; set-up: key: RM = log[(1/Rf) − 1] from RP-TLC Rf values; conditions: methanol/water 70/30 v/v, 24 °C, average of at least five measurements
Source text: Lipophilicity is the key physicochemical parameter of a bioactive molecule, linking solubility, ligand-target binding interactions and membrane permeability with absorption, distribution, bioavailability, metabolism and elimination (ADME) and toxicological effects, crucial for its biological activity. The reverse phase thin layer chromatography (RPTLC) method was used for the experimental determination of the lipophilic character of the synthesized compounds as RM values (Table 2). Lipophilicity was also theoretically calculated as clog P values, using the CLOGP Program of Biobyte Corp. and as LPSP-lipophilicity values through Spartan v.5.1.3. (Wavefunction Inc., Irvine, CA, USA). According to the calculated clog P values, as well as LPSP, the most lipophilic compounds were the compounds 2c, 2d, 2e and 2g. This observation was supported by the RM values (with the exception of 2g).
Lipophilicity as RM values was determined through reversed phase TLC (RP-TLC) on silica gel plates impregnated with 5% (v/v) liquid paraffin in light petroleum ether. Methanol/water mixture (70/30, v/v) was used a mobile phase. Closed chromatography tanks saturated with the mobile phase at 24 °C were used for the development of the plates while the spots were detected under UV light. For the determination of RM values, five individual measurements of Rf values were recorded, and the RM values were derived from the equation RM = log [(1/Rf) − 1] [42, 43] (Table 2).

[2] = Inhibition of linoleic acid lipid peroxidation (AAPH); format: biochemical
Description: For the lipid peroxidation study, 2,2′-azobis(2-amidinopropane) hydrochloride (AAPH) was used for the generation of peroxyl radicals. The generation of the conjugated diene hydroperoxide derived from the oxidation of sodium linoleate in an aqueous solution was recorded at 234 nm. The compounds presented high anti-lipid peroxidation activity (78–100%) (Table 4). Pyrazolines 2a and 2b present lower anti-lipid peroxidation activity (89% and 78% respectively).
(§1) A stock solution (1% DMSO in the appropriate buffer with the tested compound diluted under sonication) was prepared for the in vitro assays from which several dilutions were made with the appropriate buffer. The in vitro experiments were performed at least in triplicate, and the standard deviation of absorbance was less than 10% of the mean.
AAPH was used as free radical initiator of alkylperoxyl radicals. The ability of the compounds to prevent the oxidation of linoleic acid sodium salt from alkylperoxyl radicals was recorded at 234 nm. Trolox was used as reference (93%) (Table 4).

[3] = ABTS+ decolorization assay for antioxidant activity; format: biochemical
Source text: Pyrazolines 2d and 2e which are the most lipophilic compounds, showing antioxidant activity using the ABTS radical cation (ABTS^•+) generated through potassium persulfate by oxidation with no participation of an intermediary radical. This reduction is completed by adding electron-donating antioxidants. It seems that lipophilicity influences the activity, since both present high lipophilicity values.
as §1
The ABTS radical cation (ABTS^+•) was generated by mixing ABTS stock solution in water (7 mM) with potassium persulfate (2.45 mM) and left in the dark at room temperature for 12–16 h before use. The results are recorded immediately after the mixing solutions at 734 nm. The results were compared to the appropriate standard inhibitor Trolox (Table 4).

[4] = test system: carrageenin-induced rat paw edema; experiment: Inhibition of the carrageenin-induced rat paw edema; format: in vivo, Fisher 344 rats; conditions: for CPE % (reduction in the rat paw edema induced by carrageenin): 0.0057 mmol/Kg body weight, intraperitoneally, 3.5 h after carrageenin; for anti-inflammatory activity in carrageenin-induced rat paw edema (in words): intraperitoneal administration
Source text: The carrageenin-induced rat paw edema assay was used, as a model of acute inflammation. Inflammation induced by carrageenan is acute, non-immune, well-researched, and highly reproducible, and is described as a biphasic event. Cardinal signs of inflammation—edema, hyperalgesia, and erythema, are developed immediately following subcutaneous injection, resulting from the action of pro-inflammatory agents: bradykinin, histamine, tachykinins, complement reactive oxygen and nitrogen species. It is known that NSAIDs act during the second phase of prostaglandin release, presenting weak activity in the first phase of histamine and serotonin release.
The animals (Fisher 344 rats), were housed under standard conditions, and received a diet of commercial food pellets and water ad libitum during the maintenance, but were entirely fasted during the experiment period. Both sexes were used, while pregnant females were excluded. Each group was composed of 6–15 animals. Our studies were in accordance with recognized guidelines on animal experimentation (guidelines for the care and use of laboratory animals published by the Greek Government 160/1991, based on EU regulations 86/609). Rats were kept in the Centre of the School of Veterinary Medicine (EL54 BIO42), Aristotle University of Thessaloniki, which is registered by the official state veterinary authorities (presidential degree 56/2013, in harmony with the European Directive 2010/63/EEC). The experimental protocols were approved by the Animal Ethics Committee of the Prefecture of Central Macedonia.
Carrageenin in water as an intradermal injection of 0.1 mL 2% was used for the induction of the edema in the right hind paw of the rats, according to the previously reported method. Animals were divided in five-membered groups and the tested compounds were suspended in water (0.0057 mmol/kg body weight), with a few drops of Tween 80, ground in a mortar before administered intraperitoneally simultaneously. The rats were euthanized 3.5 h after carrageenin injection. Comparison of the change in paw weight with that in control animals (treated with water) was expressed as a percent inhibition of the oedema CPE% values using indomethacin (IMA) as a reference compound. Values CPE% are the mean from two different experiments with a standard error of the mean less than 10% (Table 5). Student’s T test was applied.

Molecule | RM (±SD) [1] | melting point | AAPH% 100 µM (anti-lipid peroxidation) [2] | ABTS^+ % 100 µM (decolorization activity) [3] | CPE % (reduction in the rat paw edema induced by carrageenin) [4] | anti-inflammatory activity in carrageenin-induced rat paw edema (in words) [4]
5-(4-((4-bromobenzyl)oxy)phenyl)-3-(4-chlorophenyl)-4,5-dihydro-1H-pyrazole [Compound 2e] | 0.87 ± 0.07 |  | 98% | 30% | 56.0 ** % | highest anti-inflammatory activity
Brc1ccc(COc2ccc(C3CC(c4ccccc4)=NN3)cc2)cc1 (stereo not shown) [Compound 2d, 5-(4-((4-bromobenzyl)oxy)phenyl)-3-phenyl-4,5-dihydro-1H-pyrazole] | 0.72 ± 0.06 | 98 to 100 °C | 96% | 15% | 63.0 ** % | highest anti-inflammatory activity
CC(=O)n1nc(-c2ccc(Cl)cc2)cc1-c1cccc2ccccc12 [Compound 2g, 1-(3-(4-chlorophenyl)-5-(naphthalen-1-yl)-1H-pyrazol-1-yl)ethan-1-one] | −0.59 ± 0.05 | 53 to 55 °C | 100% | no | 33.0 * % | medium activity
CC(=O)n1nc(-c2ccccc2)cc1-c1cccc(Oc2ccccc2)c1 [Compound 2h, 1-(5-(3-phenoxyphenyl)-3-phenyl-1H-pyrazol-1-yl)ethan-1-one] | 0.41 ± 0.02 | 44 to 46 °C | 97% | no | 16.0 * % | low activity

The next lines start with results.

RM (±SD) [1] | melting point | Molecule | AAPH% 100 µM (anti-lipid peroxidation) [2] | ABTS^+ % 100 µM (decolorization activity) [3] | CPE % (reduction in the rat paw edema induced by carrageenin) [4] | anti-inflammatory activity in carrageenin-induced rat paw edema (in words) [4]
0.68 ± 0.05 |  | 1-(5-(4-((4-bromobenzyl)oxy)phenyl)-3-(thiophen-2-yl)-1H-pyrazol-1-yl)ethan-1-one [Compound 2c] | 100% | no | 38.0 * % | medium activity
0.22 ± 0.2 | 45 to 47 °C | c1ccc(C2=NNC(c3cccc4ccccc34)C2)cc1 (stereo not shown) [Compound 2a, 5-(naphthalen-1-yl)-3-phenyl-4,5-dihydro-1H-pyrazole] | 89% | no | no | inactive
0.23 ± 0.03 | 96 to 98 °C | Clc1ccc(C2=NNC(c3ccc4[nH]ccc4c3)C2)cc1 (stereo not shown) [Compound 2b, 5-(3-(4-chlorophenyl)-4,5-dihydro-1H-pyrazol-5-yl)-1H-indole] | 78% | no | 27.0 * % | medium activity
−0.07 ± 0.01 | 65 to 66 °C | CC(=O)n1nc(-c2ccccc2)cc1-c1ccc2[nH]ccc2c1 [Compound 2f, 1-(5-(1H-indol-5-yl)-3-phenyl-1H-pyrazol-1-yl)ethan-1-one] | 95% | no | 30.0 * % | medium activity
